The subject of data set [1] is MLLr leukemia cell line MV4-11. The experiment in a line: Cell proliferation assay MV4;11 (CellTiter-Glo, 72 hours). Type of data set: cell-based. The conditions noted are these: Homo sapiens; MV4-11 cells, 72 hours, CellTiter-Glo; read-out: MV4; 11 IC50. The method, then: Compounds were evaluated for its capacity to inhibit the proliferation of the MLLr leukemia cell line MV4-11 that harbors an MLL1-AF4 fusion protein. MV4-11 cells were cultured for 72 hours with limiting dilutions of compounds and viability was measured using CellTiter-Glo.
Compounds were dissolved to obtain as 10 mM solution in DMSO. The stock was diluted 1:5 to the top concentration of 2 mM in 100% DMSO. For IC50 determination, serial 1:3.16 dilutions were prepared in 100% DMSO by diluting 20 μL into 43.5 μL of DMSO for 8 concentrations. Each prepared DMSO solution were further diluted 1:500 in the cell culture media to obtain the 2× dosing solutions. The final concentrations of tested compounds in the cell culture media ranged from 0.632 nM to 2000 nM.
MV4-11 cells were cultured in IMDM with 10% FBS and 1× Penicillin-Streptomycin at 5% CO2 and 37° C. A cell suspension was prepared containing 15,000 cells/ml in the culture medium and 100 μL of this suspension was added per well to a 96-well cell culture plate. Then, 100 μL of 2× dosing media containing test compounds were added bringing the total volume to 200 μL. These cells were cultured for 72 hours at 37° C. and 5% CO2 in a humidified incubator.
After 72 hours, the cultured cells were mixed and 100 μL was transferred to a 96-well black plate. Cell Titer Glo (100 μl) was then added to this plate. The plate was mixed with shaking for 15 mins at RT, the luminescence was then measured using Tecan Spark 20M spectrophotometer. Cell Viability (%) was determined by RLU of test/RLU average vehicle control*100 and % max inhibition was determined by 100−(% cell viability remaining at the top concentration of compound).
(Cellular ATP, detected with luciferase, serves as a proxy for viable cell number.)

A further data set concerns the target hERG (Homo sapiens, UniProt Q12809). The experiment in a line: Patch clamp assay (hERG tail currents, whole-cell). Background: In patch-clamp work, channel activity is measured electrically.

Structures are written as SMILES.

hERG, sequence (Q12809 whole entry): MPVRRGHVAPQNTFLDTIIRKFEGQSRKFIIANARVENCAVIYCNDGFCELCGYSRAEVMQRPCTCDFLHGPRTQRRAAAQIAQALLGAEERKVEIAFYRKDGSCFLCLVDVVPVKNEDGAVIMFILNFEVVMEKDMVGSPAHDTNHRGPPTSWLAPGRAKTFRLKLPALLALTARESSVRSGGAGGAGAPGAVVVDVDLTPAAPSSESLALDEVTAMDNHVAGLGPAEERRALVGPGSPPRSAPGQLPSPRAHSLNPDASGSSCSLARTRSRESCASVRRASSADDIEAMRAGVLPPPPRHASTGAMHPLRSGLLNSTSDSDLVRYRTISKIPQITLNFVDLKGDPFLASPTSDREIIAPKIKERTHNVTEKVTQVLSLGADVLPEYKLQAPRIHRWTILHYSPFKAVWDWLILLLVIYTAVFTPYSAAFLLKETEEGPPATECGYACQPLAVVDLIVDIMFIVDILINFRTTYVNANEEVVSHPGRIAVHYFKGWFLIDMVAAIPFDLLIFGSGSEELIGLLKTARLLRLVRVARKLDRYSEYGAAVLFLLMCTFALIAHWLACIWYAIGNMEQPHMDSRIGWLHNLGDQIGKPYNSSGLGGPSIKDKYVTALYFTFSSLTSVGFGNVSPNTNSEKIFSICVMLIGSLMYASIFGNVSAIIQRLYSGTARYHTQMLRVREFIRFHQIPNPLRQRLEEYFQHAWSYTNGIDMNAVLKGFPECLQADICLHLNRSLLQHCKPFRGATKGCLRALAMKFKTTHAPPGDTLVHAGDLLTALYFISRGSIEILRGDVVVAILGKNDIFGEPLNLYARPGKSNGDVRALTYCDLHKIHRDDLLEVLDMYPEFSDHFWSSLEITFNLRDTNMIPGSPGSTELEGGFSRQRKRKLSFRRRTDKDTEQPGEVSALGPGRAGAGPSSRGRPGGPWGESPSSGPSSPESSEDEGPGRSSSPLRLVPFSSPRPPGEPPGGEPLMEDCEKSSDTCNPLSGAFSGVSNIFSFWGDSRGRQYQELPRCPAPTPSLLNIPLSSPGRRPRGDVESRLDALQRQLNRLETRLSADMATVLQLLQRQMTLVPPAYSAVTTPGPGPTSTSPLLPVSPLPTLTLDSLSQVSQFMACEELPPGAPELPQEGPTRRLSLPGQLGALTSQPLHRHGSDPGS

As for `CCN(C(=O)c1cc(F)ccc1Oc1cncnc1N1CC2(CCN(C[C@@H]3CC[C@@H](NS(=O)(=O)c4cnn(C)c4)CO3)CC2)C1)C(C)C` [Example 68, N-Ethyl-5-fluoro-N-isopropyl-2-((4-(7-(((2S,5R)-5-((1-methyl-1H-pyrazole)-4-sulfonamido)tetrahydro-2H-pyran-2-yl)methyl)-2,7-diazaspiro[3.5]nonan-2-yl)pyrimidin-5-yl)oxy)benzamide], in data set [1], the IC50 was < 100 nM. Also, the “hERG % Remaining” value at hERG (10 μM compound) and on hERG (30 μM compound) was “+++ (≥66%)” throughout.

For the compound `CCN(C(=O)c1cc(F)ccc1Oc1cncnc1N1CC2(CCN(C[C@@H]3CC[C@@H](NS(=O)(=O)c4csc(C)n4)CO3)CC2)C1)C(C)C` [Example 71, N-Ethyl-5-fluoro-N-isopropyl-2-((4-(7-(((2S,5R)-5-((2-methylthiazole)-4-sulfonamido)tetrahydro-2H-pyran-2-yl)methyl)-2,7-diazaspiro[3.5]nonan-2-yl)pyrimidin-5-yl)oxy)benzamide], the IC50 in data set [1] was < 100 nM. Also, the “hERG % Remaining” value on hERG (10 μM compound) was “+++ (≥66%)”; on hERG (30 μM compound), “++ (233% and ≤66%)”.

For `CCN(C(=O)c1cc(F)ccc1Oc1cncnc1N1CC2(CCN(C[C@@H]3CC[C@@H](NS(=O)(=O)c4cnc(C)o4)CO3)CC2)C1)C(C)C` [Example 72, N-Ethyl-5-fluoro-N-isopropyl-2-((4-(7-(((2S,5R)-5-((2-methyloxazole)-5-sulfonamido)tetrahydro-2H-pyran-2-yl)methyl)-2,7-diazaspiro[3.5]nonan-2-yl)pyrimidin-5-yl)oxy)benzamide], in data set [1], the IC50 is < 100 nM. Moreover, the “hERG % Remaining” value was “++ (233% and ≤66%)” on hERG (10 μM compound); “+ (<33%)” on hERG (30 μM compound).

As for `CC(C)N(C(=O)c1cc(F)ccc1Oc1nncnc1N1CC2(CCN(C[C@@H]3CC[C@@H](NS(=O)(=O)c4cnn(C)c4)CO3)CC2)C1)C(C)C` [Example 197, 5-Fluoro-N,N-diisopropyl-2-((5-(7-(((2S,5R)-5-((1-methyl-1H-pyrazole)-4-sulfonamido)tetrahydro-2H-pyran-2-yl)methyl)-2,7-diazaspiro[3.5]nonan-2-yl)-1,2,4-triazin-6-yl)oxy)benzamide], the IC50 in data set [1] was < 100 nM.

For the compound `CC(C)N(C(=O)c1cc(F)ccc1Oc1cncnc1N1CC2(CCN(C[C@@H]3CC[C@@H](NS(=O)(=O)N4CCC[C@H]4C)CO3)CC2)C1)[C@@H]1CCOC1` [Example 204, 5-Fluoro-N-isopropyl-2-((4-(7-(((2S,5R)-5-(((R)-2-methylpyrrolidine)-1-sulfonamido)tetrahydro-2H-pyran-2-yl)methyl)-2,7-diazaspiro[3.5]nonan-2-yl)pyrimidin-5-yl)oxy)-N-((R)-tetrahydrofuran-3-yl)benzamide], the IC50 in data set [1] is < 100 nM.

As to `CC(C)N(C(=O)c1cc(F)ccc1Oc1cncnc1N1CC2(CCN(C[C@@H]3CC[C@@H](NS(=O)(=O)N4CCC[C@@H]4C)CO3)CC2)C1)[C@@H]1CCOC1` [Example 205, 5-Fluoro-N-isopropyl-2-((4-(7-(((2S,5R)-5-(((S)-2-methylpyrrolidine)-1-sulfonamido)tetrahydro-2H-pyran-2-yl)methyl)-2,7-diazaspiro[3.5]nonan-2-yl)pyrimidin-5-yl)oxy)-N-((R)-tetrahydrofuran-3-yl)benzamide], the IC50 in data set [1] was < 100 nM.

For `CC(C)N(C(=O)c1cc(F)ccc1Oc1cncnc1N1CC2(CCN(C[C@@H]3CC[C@@H](NS(=O)(=O)N4CCC[C@@H]4C)CO3)CC2)C1)C1CCOC1` (stereo partly drawn) [Example 206, 5-Fluoro-N-isopropyl-2-((4-(7-(((2S,5R)-5-(((S)-2-methylpyrrolidine)-1-sulfonamido)tetrahydro-2H-pyran-2-yl)methyl)-2,7-diazaspiro[3.5]nonan-2-yl)pyrimidin-5-yl)oxy)-N-((S)-tetrahydrofuran-3-yl)benzamide], the IC50 in data set [1] is < 100 nM.

Regarding `CC(C)N(C(=O)c1cc(F)ccc1Oc1cncnc1N1CC2(CCN(C[C@@H]3CC[C@@H](NS(=O)(=O)N4CCC[C@H]4C)CO3)CC2)C1)C1CCOC1` (stereo partly drawn) [Example 207, 5-Fluoro-N-isopropyl-2-((4-(7-(((2S,5R)-5-(((R)-2-methylpyrrolidine)-1-sulfonamido)tetrahydro-2H-pyran-2-yl)methyl)-2,7-diazaspiro[3.5]nonan-2-yl)pyrimidin-5-yl)oxy)-N-((S)-tetrahydrofuran-3-yl)benzamide], the IC50 in data set [1] is < 100 nM.

As to `COC[C@H]1CCCN1S(=O)(=O)N[C@@H]1CC[C@@H](CN2CCC3(CC2)CN(c2ncncc2Oc2ccc(F)cc2C(=O)N(C(C)C)C(C)C)C3)OC1` [Example 212, 5-Fluoro-N,N-diisopropyl-2-((4-(7-(((2S,5R)-5-(((R)-2-(methoxymethyl)pyrrolidine)-1-sulfonamido)tetrahydro-2H-pyran-2-yl)methyl)-2,7-diazaspiro[3.5]nonan-2-yl)pyrimidin-5-yl)oxy)benzamide], the IC50 in data set [1] is < 100 nM.

In the case of `COC[C@@H]1CCCN1S(=O)(=O)N[C@@H]1CC[C@@H](CN2CCC3(CC2)CN(c2ncncc2Oc2ccc(F)cc2C(=O)N(C(C)C)C(C)C)C3)OC1` [Example 213, 5-Fluoro-N,N-diisopropyl-2-((4-(7-(((2S,5R)-5-(((S)-2-(methoxymethyl)pyrrolidine)-1-sulfonamido)tetrahydro-2H-pyran-2-yl)methyl)-2,7-diazaspiro[3.5]nonan-2-yl)pyrimidin-5-yl)oxy)benzamide], the IC50 in data set [1] is < 100 nM.

As to `CN=S(=O)(N[C@@H]1CC[C@@H](CN2CCC3(CC2)CN(c2ncncc2Oc2ccc(F)cc2C(=O)N(C(C)C)C(C)C)C3)OC1)c1ccccc1` (stereo partly drawn) [Example 232, 5-Fluoro-N,N-diisopropyl-2-((4-(7-(((2S,5R)-5-(N′-methylphenylsulfonoamidimidamido)tetrahydro-2H-pyran-2-yl)methyl)-2,7-diazaspiro[3.5]nonan-2-yl)pyrimidin-5-yl)oxy)benzamide], the IC50 in data set [1] lay in the range of 100 to 1000 nM.

Turning to `CC(C)N(C(=O)c1cc(F)ccc1Oc1cncnc1N1CC2(CCN(C[C@@H]3CC[C@@H](NS(=N)(=O)C4CC4)CO3)CC2)C1)C(C)C` (stereo partly drawn) [Example 233, 2-((4-(7-(((2S,5R)-5-(Cyclopropanesulfonoamidimidamido)tetrahydro-2H-pyran-2-yl)methyl)-2,7-diazaspiro[3.5]nonan-2-yl)pyrimidin-5-yl)oxy)-5-fluoro-N,N-diisopropylbenzamide], in data set [1], the IC50 was < 100 nM.

Turning to `Cc1ncc(S(=O)(=O)N[C@@H]2CC[C@@H](CN3CCC4(CC3)CN(c3ncncc3Oc3ccc(F)cc3C(=O)N(C(C)C)C(C)C)C4)OC2)[nH]1` [Example 234, 5-Fluoro-N,N-diisopropyl-2-((4-(7-(((2S,5R)-5-((2-methyl-1H-imidazole)-5-sulfonamido)tetrahydro-2H-pyran-2-yl)methyl)-2,7-diazaspiro[3.5]nonan-2-yl)pyrimidin-5-yl)oxy)benzamide], the IC50 in data set [1] was < 100 nM.

For `CC(C)N(CC(F)F)C(=O)c1cc(F)ccc1Oc1cncnc1N1CC2(CCN(C[C@@H]3CC[C@@H](NS(=O)(=O)N4CC(OCc5ccccc5)C4)CO3)CC2)C1` [Example 236, 2-((4-(7-(((2S,5R)-5-((3-(Benzyloxy)azetidine)-1-sulfonamido)tetrahydro-2H-pyran-2-yl)methyl)-2,7-diazaspiro[3.5]nonan-2-yl)pyrimidin-5-yl)oxy)-N-(2,2-difluoroethyl)-5-fluoro-N-isopropylbenzamide], the IC50 in data set [1] was < 100 nM.

For `CC(C)N(CC(F)F)C(=O)c1cc(F)ccc1Oc1cncnc1N1CC2(CCN(C[C@@H]3CC[C@@H](NS(=O)(=O)N4CC(O)C4)CO3)CC2)C1` [Example 237, N-(2,2-Difluoroethyl)-5-fluoro-2-((4-(7-(((2S,5R)-5-((3-hydroxyazetidine)-1-sulfonamido)tetrahydro-2H-pyran-2-yl)methyl)-2,7-diazaspiro[3.5]nonan-2-yl)pyrimidin-5-yl)oxy)-N-isopropylbenzamide], the IC50 in data set [1] is < 100 nM.

In the case of `CC(C)N(CC(F)F)C(=O)c1cc(F)ccc1Oc1cncnc1N1CC2(CCN(C[C@@H]3CC[C@@H](NS(=O)(=O)N(C)CCOCc4ccccc4)CO3)CC2)C1` [Example 238], the IC50 in data set [1] is < 100 nM.

On to `CCS(=O)(=O)N[C@@H]1CC[C@@H](CN2CCC3(CC2)CN(c2ncncc2Oc2ccc(F)cc2C(=O)N(C(C)C)[C@H]2[C@@H]4COC[C@@H]42)C3)OC1` [Example 253, N-((1R,5S,6r)-3-Oxabicyclo[3.1.0]hexan-6-yl)-2-((4-(7-(((2S,5R)-5-(ethylsulfonamido)tetrahydro-2H-pyran-2-yl)methyl)-2,7-diazaspiro[3.5]nonan-2-yl)pyrimidin-5-yl)oxy)-5-fluoro-N-isopropylbenzamide], for which, in data set [1], the IC50 was 100 to 1000 nM.

In the case of `CCS(=O)(=O)N[C@@H]1CC[C@@H](CN2CCC3(CC2)CN(c2ncncc2Oc2ccc(F)cc2C(=O)N(C(C)C)[C@H]2C[C@H](O)C2)C3)OC1` [Example 259, 2-((4-(7-(((2S,5R)-5-(Ethylsulfonamido)tetrahydro-2H-pyran-2-yl)methyl)-2,7-diazaspiro[3.5]nonan-2-yl)pyrimidin-5-yl)oxy)-5-fluoro-N-((1r,3r)-3-hydroxycyclobutyl)-N-isopropylbenzamide], in data set [1], the IC50 is < 100 nM.

The values are drawn from patent publication US20240400564A1 (Syndax Pharmaceuticals, Inc, priority 2021, published 2024).
